Data from patent US6759238B1, “Multidrug resistance associated proteins and uses thereof” (priority 1999, dated 2004).

How the values were obtained:
CEM-r1 cells [1] = assay: Uptake and metabolism of [3H]PMEA; conditions: for Intracellular levels: CEM-r1, 10 μM [3H]PMEA; for Intracellular level in CEM-r1 as percent of the wildtype level: CEM-r1 vs CEM-SS
Description: (§2) The mutant and parental cells were incubated with 10 μM [^3H]PMEA and at various times were analyzed for intracellular levels of PMEA and its metabolites by Partisil SAX HPLC. […] The metabolism of [^3H]PMEA was also examined in both cell lines after longer periods (i.e., 8 and 12 hr) of incubation with 10 μM [^3H]PMEA.
(§3) Exponentially growing cultures were incubated with 10 μM [^3H] PMEA for 8 or 12 hr and the cell extracts were analyzed for PMEA and its metabolites by ion exchange HPLC, as described.
(§4) Exponentially growing CEM-SS and CEM-r1 cells were harvested by centrifugation, resuspended at 1×10^6 cells/ml in fresh medium in the presence of [^3H]PMEA or [^3H]bispom-PMEA, and incubated at 37° C. At the indicated time points, aliquots of the cells were removed and centrifuged through Nyosil 50 (W. F. Nye, Inc., New Bedford, Ma.) at 13,000×g for 60 seconds at 4° C. When bispom-PMEA was investigated, an aliquot of the cell-free medium was also removed and analyzed by HPLC for determination of extracellular metabolites. The cell pellet was extracted with 70% ice-cold methanol and the aqueous phase was collected and analyzed for intracellular tritiated PMEA or tritiated bispom-PMEA and their metabolites by using HPLC analysis, essentially as described previously (23, 24).

CEM-SS cells [2] = assay: Uptake and metabolism of [3H]PMEA; conditions: 10 μM [3H]PMEA
Description: as §2, §3, §4

CEM-SS cells [3] = assay: Cytotoxicity assay (growth inhibition, Coulter counter); conditions: CEM-SS
Description: […] Each result is the mean of one representative experiment performed in duplicate. The cultures with the purine nucleosides adenosine, 2′-deoxyadenosine, and arabinosyladenine contained 5 μM deoxycoformycin to inhibit adenosine deaminase activity.
(§1) All assays were performed in 24-well tissue culture plates (Costar, Cambridge, Ma.). […] At the end of the incubation, the cell concentrations, sizes, and volumes were counted in a Coulter counter (Coulter Electronics, Hialeah. Fla.).

CEM-r1 cells [4] = assay: as above; conditions: for Relative Resistance: CEM-r1 vs CEM-SS (Table 3); for Cross-resistance of CEM-r1 cells (in words): relative sensitivity of wild-type and CEM-r1 cells
Description: Selection for PMEA resistance was carried out by exposing CEM-SS cells in culture to increasing concentrations of PMEA, over several months.
The IC50 values were obtained after 2 days of culture. Each result is the mean of one representative experiment performed in duplicate. The cultures with the purine nucleosides adenosine, 2′-deoxyadenosine, and arabinosyladenine contained 5 μM deoxycoformycin to inhibit adenosine deaminase activity.
as §1

CaCo-2 cells = assay: PMEA transport in transwell culture; format: in vitro ADME; conditions: CaCo-2 transwell
Excerpt: A transwell culture which is permissive for cellular polarization may be used to measure the compartment to compartment flux of putative substrates. […] In addition, it is possible that expression of MPR4 depending if it is basal or apical (and this may vary by organ cultured) may determine if PMEA or PMEA-like drugs are absorbed.

CEM-r1 cells [5] = assay: Efflux of [3H]-AZT and its metabolites; format: in vitro ADME, human
Description: Cells were incubated for 60 minutes with [^3H]-AZT (10 μM) after which they were washed free of radioactivity, resuspended in drug-free medium and the intracellular and the extracellular concentration of [^3H]-AZT were measured. […] At least 80% of the AZTMP present intracellularly in CEM-r1 cells was excreted into the medium in 10 minutes (FIG. 6A).
Referring to Table 6 in greater detail, efflux kinetics were studied. Transport analysis of PMEA was conducted as previously described^48. […] The cells were then washed free of radioactivity and then incubated in drug-free medium in the presence of sodium azide and 2-deoxy-D-glucose. At various time periods, the amount of intracellular AZTMP was measured. As reported in Table 6, depletion of ATP led to an inhibition of AZTMP efflux (i.e. a significant accumulation of AZTMP in the CEM-r1 cells but not in the CEM-SS cells).
The suspension was centrifuged at 3,300 rpm for 7 minutes. All but 1 ml of the supernatant medium containing the free drug was aspirated. […] The cell pellet was then washed with ice-cold medium and resuspended at the same concentration in drug-free medium and maintained at 37° C. […] An aliquot of the top layer (cell free media) was analyzed for the quantitation of AZT and its metabolites.

| Molecule | IC50 (CEM-SS cells [3]; Homo sapiens, 48 h) [µM] | Relative Resistance (CEM-r1 cells [4]) | IC50 (CEM-r1 cells [4]; Homo sapiens, 48 h) [µM] | Cross-resistance of CEM-r1 cells (in words) (CEM-r1 cells [4]) | other results |
| --- | --- | --- | --- | --- | --- |
| Nc1ncnc2c1ncn2CCOCP(=O)(O)OP(=O)(O)OP(=O)(O)O [PMEApp] | – | – | – | – | Intracellular levels (CEM-r1 cells [1]; 8 hr): 0.008 µM; Intracellular levels (CEM-r1 cells [1]; 12 hr): 0.01 µM; Intracellular level in CEM-r1 as percent of the wildtype level (CEM-r1 cells [1]; 8 hr): (3.6%); Intracellular levels (CEM-SS cells [2]; 8 hr): 0.22 µM; Intracellular levels (CEM-SS cells [2]; 12 hr): 0.41 µM |
| Nc1ncnc2c1ncn2CCOCP(=O)(O)OP(=O)(O)O [PMEAp] | – | – | – | – | Intracellular levels (CEM-r1 cells [1]; 8 hr): 0.005 µM; Intracellular levels (CEM-r1 cells [1]; 12 hr): 0.005 µM; Intracellular level in CEM-r1 as percent of the wildtype level (CEM-r1 cells [1]; 8 hr): (3.8%); Intracellular levels (CEM-SS cells [2]; 8 hr): 0.13 µM; Intracellular levels (CEM-SS cells [2]; 12 hr): 0.23 µM |
| Nc1ncnc2c1ncn2[C@@H]1O[C@H](CO)[C@@H](O)[C@H]1O [Adenosine] | 38 | 5.4 | 205 | partially resistant | – |
| Nc1ncnc2c1ncn2C[C@@H](CO)OCP(=O)(O)O [HPMPA] | – | 12 | – | partial cross-resistance | IC50 (CEM-SS cells [3]; 2 days of culture (Table 3)): 92 µM; IC50 (CEM-r1 cells [4]; CEM-r1, 2 days of culture (Table 3)): 1100 µM |
| Nc1ncnc2c1ncn2[C@H]1C[C@H](O)[C@@H](CO)O1 [2′-Deoxyadenosine] | 1.7 | ˜1 | 2.5 | – | – |
| Nc1nc(N)c2ncn(CCOCP(=O)(O)O)c2n1 [PMEADAP] | 2.3 | 533 | 1200 | highly cross-resistant | – |
| NC(=O)NO [Hydroxyurea] | 55 | ˜1 | 50 | – | – |
| prostaglandin A | – | – | – | – | Effect on apical to basal transport of PMEA (CaCo-2 cells): specifically inhibits; Effect on basal to apical flux of PMEA (CaCo-2 cells): no effect |
| Cc1cn([C@H]2C[C@H](N=[N+]=[N-])[C@@H](COP(=O)(O)OP(=O)(O)O)O2)c(=O)[nH]c1=O [AZTDP] | – | – | – | – | Change of intracellular levels over the time period studied (CEM-r1 cells [5]): did not change significantly; Share of total cellular anabolites (CEM-r1 cells [5]): 1% |
